The values below come from publication PMC6435570, “Zafirlukast Is a Dual Modulator of Human Soluble Epoxide Hydrolase and Peroxisome Proliferator-Activated Receptor γ” (Frontiers in Pharmacology, 2019).

The subject of one experiment is 3T3-L1 cells. Kind of experiment: 3T3-L1 adipocyte differentiation, Oil Red O lipid accumulation. It is filed as cell-based, murine. Particulars: differentiation cocktail plus zafirlukast or montelukast 1, 5, 10 μM or rosiglitazone 2 μM; 14 days. The method, then:
(§1) 3T3-L1 cells were differentiated into adipocytes for 14 days according to the protocol of [Zebisch et al. (2012)]. For this, cells were seeded in 6-well plates ([…]) and differentiation was induced after 48 h by addition of a differentiation cocktail containing 1 μg/mL insulin, 0.25 μM dexamethasone and 0.5 mM isobutylmethylxanthine (IBMX) in DMEM supplemented with 10% FCS and 1% PS. […] After 2 days, medium was replaced by DMEM supplemented with 10% FCS, 1% PS and 1 μg/mL insulin for 2 more days. Afterwards, cells were kept for lipid droplet accumulation in DMEM containing 10% FCS and 1% PS until day 15. Media were replaced every other day.
Differentiated 3T3-L1 cells were washed with PBS and subsequently fixed for 60 min with formaldehyde (4% in PBS). Afterwards, cells were thoroughly rinsed with 60% isopropanol and incubated with Oil Red O solution (0.3% in 60% isopropanol) for 120 min. This was followed by the removal of the staining solution and thorough rinsing of the cell layer with ultrapure water. Finally, the plates were dried and pictures of the stained cell layers were taken.
For quantification of the accumulated dye, 3T3-L1 cells were seeded in 24-well plates (0.55 × 10^5/well) instead of 6-wells and the differentiation was carried out as described in the section ‘Adipocyte differentiation’. After 14 days of differentiation, cells were fixed and stained as described above. […] 100 μl of dye extract were transferred to a 96-well plate and absorbance was measured (λabs = 510 nm) by an Infinite F200 plate reader (Tecan Group Ltd., Männedorf, Switzerland). […]
As master regulator of adipocyte differentiation in men and mice, PPARγ plays a crucial role in the cell’s commitment to the adipocyte lineage by controlling important functions such as intracellular biosynthesis, transport and accumulation of lipids. […] Upon differentiation, different parameters such as lipid accumulation and PPARγ target gene expression can be assessed to investigate the PPARγ activating potential of the compounds of interest. […]

In experiment [1] the test system is PPARγ2 phosphorylation at serine 273. Kind of experiment: TNFα triggered PPARγ Ser273 phosphorylation in 3T3-L1 adipocytes (Western Blot). In kind it is cell-based, murine. Particulars: zafirlukast 1 or 10 μM or rosiglitazone 2 μM for 45 min, then TNFα 50 ng/mL 30 min. The method, then: Total 3T3-L1 or HEP-G2 cell lysates were prepared in lysis buffer (20 mM Tris-HCl, pH 7.4, 150 mM NaCl, 2 mM EDTA, 1% Triton X-100, 0.5% NP-40) supplemented with protease and phosphatase inhibitors (PhosSTOP^TM + cOmplete^TM Mini, Roche Diagnostics GmbH, Mannheim, Germany). Protein concentrations were quantified using the Pierce^TM BCA Protein Assay Kit (Thermo Scientific, Waltham, MA, United States). Total protein (30 μg/lane) was separated by SDS-polyacrylamide gel electrophoresis and transferred to nitrocellulose membranes (GE Healthcare Life Sciences, Little Chalfont, United Kingdom). Membranes were blocked with Odyssey blocking reagent (LI-COR Biosciences, Bad Homburg, Germany) for 1 h at room temperature. […] Afterwards, membranes were washed and incubated with fluorescence conjugated secondary antibodies (IRDye, LI-COR Biosciences, Bad Homburg, Germany). […] The density of the immune reactive bands was analyzed using the Image Studio 5.2 software (LI-COR Biosciences, Bad Homburg, Germany).
We induced this post-translational modification by short-term treatment of the differentiated cells with the cytokine TNFα, generating a pro-inflammatory milieu. […] For this, we used an assay system in which the recruitment of the fluorescence-tagged PPARγ coactivator CBP to the PPARγ-LBD was assessed by time-resolved FRET technique in presence and absence of rosiglitazone.
In general terms: In western blotting, separated proteins are transferred to a membrane and probed.

The subject of experiment [2] is PPARγ, FABP-4 and CD36 protein in 3T3-L1 adipocytes. Briefly: Protein expression in differentiated 3T3-L1 adipocytes (Western Blot). Particulars: rosiglitazone 2 μM. In kind it is cell-based, murine. The protocol:
as §1
Total 3T3-L1 or HEP-G2 cell lysates were prepared in lysis buffer (20 mM Tris-HCl, pH 7.4, 150 mM NaCl, 2 mM EDTA, 1% Triton X-100, 0.5% NP-40) supplemented with protease and phosphatase inhibitors (PhosSTOP^TM + cOmplete^TM Mini, Roche Diagnostics GmbH, Mannheim, Germany). Protein concentrations were quantified using the Pierce^TM BCA Protein Assay Kit (Thermo Scientific, Waltham, MA, United States). Total protein (30 μg/lane) was separated by SDS-polyacrylamide gel electrophoresis and transferred to nitrocellulose membranes (GE Healthcare Life Sciences, Little Chalfont, United Kingdom). Membranes were blocked with Odyssey blocking reagent (LI-COR Biosciences, Bad Homburg, Germany) for 1 h at room temperature. Ensuing, membranes were incubated with antibodies against CD36 (EPR6573, Abcam, Cambridge, United Kingdom), PPARγ (E-8, Santa Cruz Biotechnology, Heidelberg, Germany), FABP-4 (C-15, Santa Cruz Biotechnology, Heidelberg, Germany) or PPARγ Ser273 (Bioss Antibodies Inc., Woburn, MA, United States) overnight at 4°C. Afterwards, membranes were washed and incubated with fluorescence conjugated secondary antibodies (IRDye, LI-COR Biosciences, Bad Homburg, Germany). Protein antibody complexes were visualized on the Odyssey Infrared Imaging System (LI-COR Biosciences, Bad Homburg, Germany). β-actin (I-19, goat, polyclonal, Santa Cruz Biotechnology, Heidelberg, Germany) was used as loading control. The density of the immune reactive bands was analyzed using the Image Studio 5.2 software (LI-COR Biosciences, Bad Homburg, Germany).
As master regulator of adipocyte differentiation in men and mice, PPARγ plays a crucial role in the cell’s commitment to the adipocyte lineage by controlling important functions such as intracellular biosynthesis, transport and accumulation of lipids. Murine 3T3-L1 fibroblasts are a well characterized in vitro tool to study PPARγ induced adipocyte differentiation. These cells can be differentiated from fibroblasts into adipocytes by an activation cocktail (0.5 mM IBMX, 1 μg/mL insulin, 0.25 μM dexamethasone) together with the potential PPARγ agonist. Upon differentiation, different parameters such as lipid accumulation and PPARγ target gene expression can be assessed to investigate the PPARγ activating potential of the compounds of interest. […] Rosiglitazone (2 μM) was used as positive control. This was followed by insulin (1 μg/mL) treatment for another 48 h. After this, cells were kept in growth medium for a week to complete the differentiation process and allow intracellular lipid accumulation. Subsequently, the cells were stained with Oil Red O solution to investigate the extent of cytoplasmic lipid droplet accumulation as a measure for cell differentiation.
In addition to mRNA expression, the protein expression levels of the two PPARγ target genes FABP-4 and CD36 in differentiated 3T3-L1 cells after 14 days were investigated. For this, total protein lysates were separated by gel electrophoresis followed by Western Blotting (Figure 3E,F and Supplementary Figures S2A,B).

Another experiment has as its system CysLT1R. Particulars: Table 2 comparison column; no method, no reference given; cited from earlier work.
Experiment [3] concerns the target T1, human PPARδ ligand binding domain (Homo sapiens, UniProt Q03181).
T1 construct: expressed in transfected cells; host or cells: HEK-293T
T1 sequence (Q03181 211-439 limits assumed): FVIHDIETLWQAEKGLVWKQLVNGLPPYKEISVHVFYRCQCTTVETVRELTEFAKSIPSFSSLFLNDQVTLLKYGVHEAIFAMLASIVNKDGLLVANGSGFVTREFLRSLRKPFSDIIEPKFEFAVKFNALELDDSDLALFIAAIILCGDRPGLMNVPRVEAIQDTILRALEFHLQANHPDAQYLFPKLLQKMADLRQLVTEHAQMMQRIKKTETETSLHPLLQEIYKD
Briefly: PPAR reporter gene assay (Gal4 hybrid, PPARδ). It is filed as cell-based. Particulars: HEK-293T, reference L165,041 1 μM, tested up to 10 μM. In general terms: Reporter assays use an easily measured gene product as a stand-in for the process of interest.
Description: (§2) HEK-293T cells were seeded in 96-well plates (2.5 × 10^4 cells/well) and were allowed to adhere overnight. Before transfection, medium was changed to Opti-MEM without supplements. Transient plasmid transfection was carried out using Lipofectamine LTX reagent (Invitrogen, Carlsbad, CA, United States) according to the manufacturer’s protocol with pFR-Luc (Stratagene, La Jolla, CA, United States), pRL-SV40 (Promega, Fitchburg, MA, United States) and pFA-CMV-PPAR-LBD ([Rau et al., 2006]). 5 h after transfection, medium was changed to Opti-MEM supplemented with penicillin (100 U/mL) and streptomycin (100 μg/mL), now additionally containing 0.1% DMSO and the respective test compound or 0.1% DMSO alone as untreated control. Each concentration was tested in triplicates and each experiment was repeated independently at least four times. Following overnight (12–16 h) incubation with the test compounds, cells were assayed for luciferase activity using the Dual-Glo^TM Luciferase Assay System (Promega, Fitchburg, MA, United States) according to the manufacturer’s protocol. Luminescence was measured with an Infinite M200 luminometer (Tecan Group Ltd., Männedorf, Switzerland). Normalization of transfection efficiency and cell growth was done by division of firefly luciferase data by renilla luciferase data and multiplying the value by 1000 resulting in relative light units (RLU). Fold activation was obtained by dividing the mean RLU of a test compound at a respective concentration by the mean RLU of untreated control. Relative activation was obtained by dividing the fold activation of a test compound at a respective concentration by the fold activation of the respective PPARα, γ or δ full agonist GW-7647, pioglitazone or L165,041 at 1 μM. EC50 and standard deviation were calculated with the mean relative activation values of at least four independent experiments by SigmaPlot 10.0 (Systat Software GmbH, Erkrath, Germany) using a four parameter logistic regression. […]

The next experiment addresses T2, recombinant human sEH (Homo sapiens, UniProt P34913).
T2 sequence (P34913 1-555): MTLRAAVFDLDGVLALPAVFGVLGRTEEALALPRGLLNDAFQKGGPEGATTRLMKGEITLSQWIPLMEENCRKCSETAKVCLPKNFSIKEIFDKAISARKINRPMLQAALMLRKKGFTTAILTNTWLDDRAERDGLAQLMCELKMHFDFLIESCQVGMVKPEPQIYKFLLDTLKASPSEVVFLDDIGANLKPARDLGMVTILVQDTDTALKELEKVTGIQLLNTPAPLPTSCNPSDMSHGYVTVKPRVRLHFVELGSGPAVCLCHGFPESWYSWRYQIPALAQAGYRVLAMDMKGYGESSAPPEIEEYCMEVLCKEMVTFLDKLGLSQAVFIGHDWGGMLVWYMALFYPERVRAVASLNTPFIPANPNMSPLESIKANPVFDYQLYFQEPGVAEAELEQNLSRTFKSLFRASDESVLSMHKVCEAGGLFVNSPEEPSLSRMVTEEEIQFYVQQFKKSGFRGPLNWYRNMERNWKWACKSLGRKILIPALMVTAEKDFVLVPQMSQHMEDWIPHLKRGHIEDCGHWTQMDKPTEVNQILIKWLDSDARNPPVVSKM
Kind of experiment: Recombinant sEH activity (PHOME fluorescence assay). In kind it is biochemical. Particulars: PHOME 50 μM, 30 min preincubation at RT, read-out: sEH rec. IC50.

The next experiment deals with T3, sEH (HEP-G2) (Homo sapiens, UniProt P34913).
T3 construct: 1 μg of total cell homogenate diluted in 100 μl of PBS; endogenous in cells; host or cells: HEP-G2
T3 sequence (P34913 1-555): T2 sequence (P34913 1-555)
Kind of experiment: sEH activity in HEP-G2 cell lysates (14(15)-EET-d11 to DHET-d11, LC-MS/MS). In kind it is biochemical. Particulars: HEP-G2 cell homogenate, (±)14(15)-EET-d11 substrate, DHET formation by LC-MS/MS.

In experiment [4] the target is T4, human PPARα ligand binding domain (Homo sapiens, UniProt Q07869).
T4 construct: expressed in transfected cells; host or cells: HEK-293T
T4 sequence (Q07869 239-466 limits assumed): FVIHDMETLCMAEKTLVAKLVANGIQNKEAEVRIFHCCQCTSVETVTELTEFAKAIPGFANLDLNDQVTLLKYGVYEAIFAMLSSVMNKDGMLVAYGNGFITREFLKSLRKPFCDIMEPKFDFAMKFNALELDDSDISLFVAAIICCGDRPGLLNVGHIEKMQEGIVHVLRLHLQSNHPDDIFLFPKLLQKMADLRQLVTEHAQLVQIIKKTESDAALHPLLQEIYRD
Kind of experiment: PPAR reporter gene assay (Gal4 hybrid, PPARα). It is filed as cell-based. Particulars: HEK-293T, reference GW7647 1 μM, tested up to 10 μM.
Description: as §2

Description for recombinant human sEH: For determination of IC50 values of recombinant human sEH a 96-well fluorescence-based assay system was used as described before ([Blöcher et al., 2016a]). In brief, non-fluorescent PHOME (3 phenylcyano-(6-methoxy-2-naphthalenyl)methyl ester 2-oxiraneacetic acid, Cayman Chemicals, Ann Arbor, MI, United States) was used as substrate, which is hydrolyzed by sEH to the fluorescent 6-methoxynaphthaldehyde ([Rau et al., 2006]). The formation of the fluorescent product was measured (λem = 330 nm, λex = 465 nm) by an Infinite F200 Pro plate reader (Tecan Group Ltd., Männedorf, Switzerland). For that purpose, 2 μg recombinant human sEH in 100 μl bis-Tris buffer (pH 7, 0.1 mg/mL BSA, 0.01% Triton-X 100) was applied per well. This protein solution was then incubated with different concentrations of the test compounds for 30 min at RT. After this, 10 μL of the substrate were added (final concentration 50 μM). The formation of 6-methoxynaphthaldehyde was monitored for 30 min. All concentrations were tested in triplicate wells.
Description for sEH (HEP-G2): Quantification of cellular sEH metabolic activity was performed as described by [Zha et al. (2014)]. For this, HEP-G2 cells were harvested, washed twice with PBS and sonicated in PBS for disruption of cell integrity. Then, 1 μg of total cell homogenate diluted in 100 μl of PBS containing 0.1 mg/ml BSA was incubated with the compounds or vehicle for 15 min at 37°C. After this, 25 ng (±)14(15)-EET-d11 (Cayman Chemical, Ann Arbor, MI, United States) were added per sample and the incubation was continued for additional 10 min at 37°C. A blank was performed using PBS (containing 0,1 mg/mL BSA). The reactions were stopped by adding 100 μL of ice cold methanol. After centrifugation (2000 rpm, 4°C, 5 min), supernatants were analyzed by LC-MS/MS and the amounts of (±)14(15)-EET-d11 and the corresponding (±)14(15)-DHET-d11 were determined.
14(15)-EET-d11 and 14(15)-DHET-d11 content of the extracted samples were analyzed employing liquid chromatography tandem mass spectroscopy (LC-MS/MS). The LC/MS-MS system comprised an API 5500 QTrap (Sciex, Darmstadt, Germany), equipped with a Turbo-V-source operating in negative ESI mode, an Agilent 1200 binary HPLC pump and degasser (Agilent, Waldbronn, Germany) and an HTC Pal autosampler (Chromtech, Idstein, Germany) fitted with a 25 μL LEAP syringe (Axel Semrau GmbH, Sprockhövel, Germany). High purity nitrogen for the mass spectrometer was produced by a NGM 22-LC/MS nitrogen generator (cmc Instruments, Eschborn, Germany). All substances were obtained from Cayman Chemical, Ann Arbor, MI, United States. Stock solutions with 2,500 ng/mL of both analytes were prepared in methanol. Working standards were obtained by further dilution with a concentration range of 0.1–250 ng/mL for 14(15)-EET-d11 and 14(15)-DHET-d11. Sample extraction was performed with liquid–liquid-extraction. Therefore, 150 μL of matrix homogenates were gently mixed with 20 μL of internal standard [14(15)-EET and 14(15)-DHET all with a concentration of 100 ng/ml in methanol], and were extracted twice with 600 μL of ethyl acetate. Samples for standard curve and quality control were prepared similarly, instead of 150 μL of matrix homogenates, 150 μL PBS were added. Further 20 μL methanol, 20 μL working standard and 20 μL internal standard were added. The organic phase was removed at a temperature of 45°C under a gentle stream of nitrogen. The residues were reconstituted with 50 μL of methanol/water/(50:50, v/v), centrifuged for 2 min at 10,000 g and then transferred to glass vials (Macherey-Nagel, Düren, Germany) prior to injection into the LC-MS/MS system. For the chromatographic separation a Gemini NX C18 column and pre-column were used (150 mm × 2 mm i.d., 5 μm particle size and 110 Å pore size from Phenomenex, Aschaffenburg, Germany). A linear gradient was employed at a flow rate of 0.5 mL/min mobile phase with a total run time of 17.5 min. Mobile phase was A water/ammonia (100:0.05, v/v) and B acetonitrile/ammonia (100:0.05, v/v). The gradient started from 85% A to 10% within 12 min. This was held for 1 min at 10% A. Within 0.5 min the mobile phase shifted back to 85% A and was held for 3.5 min to equilibrate the column for the next sample. The injection volume of samples was 20 μL. Quantification was performed with Analyst Software V 1.5.1 (Sciex, Darmstadt, Germany) employing the internal standard method (isotope- dilution mass spectrometry). Ratios of analyte peak area and internal standard area (y-axis) were plotted against concentration (x-axis) and calibration curves were calculated by least square regression with 1/concentration^2 weighting.

For the molecule `CN(CCOc1ccc(CC2SC(=O)NC2=O)cc1)c1ccccn1` (stereo not drawn) [rosiglitazone], the “Lipid accumulation (Oil Red O staining)” value with 3T3-L1 cells is recorded as “strong accumulation of lipid droplets”. Moreover, the “TNFα induced phosphorylation of PPARγ2 at serine 273” value in experiment [1] is “inhibited this phosphorylation, although this effect was not significant”. In addition, in experiment [2] (3T3-L1 differentiated with cocktail plus compound), the “PPARγ isoforms γ1 and γ2 protein expression” value is reported as “upregulated the protein levels”. For the same molecule, the “Protein expression of PPARγ target genes FABP-4 and CD36” value in experiment [2] (after 14 days) was “upregulated the expression of all target genes investigated with high potency”.

As usually defined, the IC50 is the point on the concentration scale where inhibition reaches its midpoint. For `O=C(Nc1cccc2c(=O)cc(-c3nnn[nH]3)oc12)c1ccc(OCCCCc2ccccc2)cc1` [Pranlukast, pranlukast], the figures for the IC50 in the experiment on CysLT1R, at recombinant human sEH and on sEH (HEP-G2) were 0.004 µM, 8.86 ± 0.19 µM and 14.1 µM, respectively. Further, the “PPARδ EC50” value in experiment [3] is recorded as “i.a. @ 10 μM”. Besides, the “PPARα EC50” value in experiment [4] is on record as “i.a. @ 10 μM”.
